Laboratory results from ChEMBL document CHEMBL5518186, “Discovery of the cereblon-recruiting tubulin PROTACs effective in overcoming Taxol resistance in vitro and in vivo” (Eur J Med Chem, 2024).
Active and inactive are the calls of the source. The rule behind the calls is not given here.

Experiments:
[1] = molecular target: Protein cereblon-alpha tubulin; assay: (§1) Protac activity at CRBN/alpha-tubulin in human A549/Taxol cells assessed as reduction in alpha-tubulin level incubated for 48 hrs by immunoblotting analysis; type: cell-based
[2] = molecular target: T1, Protein cereblon-alpha tubulin (Homo sapiens) (UniProt P0DPH7+P68366+Q71U36+P68363+Q9BQE3+Q6PEY2+A6NHL2+Q9NY65+Q96SW2); assay: as §1; type: cell-based
HUVEC [3] = assay: Antiangiogenic activity in HUVECs assessed as reduction in cord formation at 2.5 nM incubated for 6 to 8 hrs by inverted microscopic analysis; type: functional, cell-based; conditions: Homo sapiens, time 6-8 hrs
HUVEC [4] = assay: Antiangiogenic activity in HUVECs assessed as reduction in tube area at 2.5 nM incubated for 6 to 8 hrs by inverted microscopic analysis; type: functional, cell-based; conditions: Homo sapiens, time 6-8 hrs
[5] = molecular target: T2, Protein cereblon/Tubulin beta-3 chain (Homo sapiens, UniProt Q13509+Q96SW2); assay: Protac activity at CRBN/beta3-tubulin in human MCF7 cells assessed as reduction in beta3-tubulin level at 10 to 1000 nM incubated for 48 hrs by immunoblotting analysis; type: cell-based; conditions: dose 10-1000 nM
T2 sequence (Q13509 whole entry, looked up): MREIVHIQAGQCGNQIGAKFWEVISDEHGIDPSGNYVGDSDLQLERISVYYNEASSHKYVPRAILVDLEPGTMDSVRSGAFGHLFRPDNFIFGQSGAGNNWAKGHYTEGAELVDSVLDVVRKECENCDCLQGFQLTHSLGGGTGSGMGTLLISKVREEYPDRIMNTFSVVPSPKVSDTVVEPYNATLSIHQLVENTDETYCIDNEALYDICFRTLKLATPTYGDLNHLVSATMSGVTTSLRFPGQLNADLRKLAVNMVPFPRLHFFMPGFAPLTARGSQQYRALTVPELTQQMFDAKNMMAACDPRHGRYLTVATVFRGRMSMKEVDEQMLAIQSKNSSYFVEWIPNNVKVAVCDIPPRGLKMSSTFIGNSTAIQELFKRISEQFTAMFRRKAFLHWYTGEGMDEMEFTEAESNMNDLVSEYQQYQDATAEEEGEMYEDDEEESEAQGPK
T2 sequence (Q96SW2 whole entry, looked up): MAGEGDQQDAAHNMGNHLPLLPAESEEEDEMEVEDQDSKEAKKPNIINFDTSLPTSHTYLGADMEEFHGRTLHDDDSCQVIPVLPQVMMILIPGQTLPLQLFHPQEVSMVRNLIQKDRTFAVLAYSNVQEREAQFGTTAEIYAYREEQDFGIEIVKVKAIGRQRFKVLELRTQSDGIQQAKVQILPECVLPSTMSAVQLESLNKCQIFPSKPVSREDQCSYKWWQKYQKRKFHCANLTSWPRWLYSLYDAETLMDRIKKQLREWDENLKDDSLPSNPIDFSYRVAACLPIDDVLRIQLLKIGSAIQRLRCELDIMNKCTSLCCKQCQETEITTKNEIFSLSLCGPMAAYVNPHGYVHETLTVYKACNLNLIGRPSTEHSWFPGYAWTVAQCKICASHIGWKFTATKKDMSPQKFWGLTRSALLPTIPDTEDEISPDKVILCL

A549 [6] = assay: Inhibition of colony formation in human A549 cells incubated for 24 hrs followed by media replacement at every 3 days for 14 days by crystal violet staining based assay; type: functional, cell-based; conditions: dose 2-50 nM, time 14.0 day
A549 [7] = assay: Induction of cell cycle arrest in human A549 cells assessed as accumulation of cells at S phase at 0.002 uM incubated for 24 hrs by PI staining based flow cytometry analysis (reference value: 1.39%); type: functional
[8] = molecular target: T2, Protein cereblon/Tubulin beta-3 chain; assay: Protac activity at CRBN/beta3-tubulin in human A549 cells assessed as reduction in beta3-tubulin level at 0.01 to 1 uM incubated for 48 hrs by immunoblotting analysis; type: cell-based; conditions: dose 0.01-1 µM
A549 [9] = assay: Induction of cell cycle arrest in human A549 cells assessed as accumulation of cells at S phase at 0.05 uM incubated for 24 hrs by PI staining based flow cytometry analysis (reference value: 1.39%); type: functional
HepG2 [10] = assay: Inhibition of cell migration in human HepG2 cells; type: functional, cell-based
[11] = molecular target: T3, Protein cereblon/Tubulin beta (Homo sapiens) (UniProt P68371+Q9H4B7+Q13509+P04350+Q3ZCM7+P07437+Q13885+Q9BVA1+Q9BUF5+Q96SW2+A6NNZ2); assay: Protac activity at CRBN/beta-tubulin in human A549 cells assessed as reduction in beta-tubulin level at 0.25 uM by immunoblotting analysis; type: cell-based; conditions: time 6-72 hrs, TDE = time-dependent effect
[12] = Resistance index, ratio of IC50 for human MCF7/Taxol cells to IC50 for human MCF7 cells; type: functional
HEK-293T = assay: Cytotoxicity against HEK293T cells assessed as effect on cell viability at 20 uM; type: toxicity, cell-based; conditions: human
A549 [13] = assay: Induction of apoptosis in human A549 cells assessed as increase in apoptotic rate at 0.05 uM incubated for 48 hrs by Annexin V-FITC/PI staining based flow cytometry analysis (reference value: 1.3%); type: functional
HepG2 [14] = assay: Induction of apoptosis in human HepG2 cells; type: functional, cell-based
Tubulin (Homo sapiens) = Tubulin (Homo sapiens) (UniProt P68371+Q9H4B7+P0DPH7+P68366+Q13509+Q71U36+P04350+Q3ZCM7+P07437+P68363+Q9BQE3+Q6PEY2+Q13885+Q9BVA1+Q9BUF5); assay: Inhibition of microtubule polymerization in human HepG2 cells by immunofluorescence assay; type: cell-based
A549/TR [15] = assay: Induction of apoptosis in human A549/Taxol cells at 0.05 uM incubated for 48 hrs by Annexin V-FITC/PI staining based flow cytometry analysis; type: functional
[16] = molecular target: T2, Protein cereblon/Tubulin beta-3 chain; assay: Protac activity at CRBN/beta3-tubulin in human A549 cells assessed as reduction in beta3-tubulin level at 0.25 uM by immunoblotting analysis; type: cell-based; conditions: time 6-72 hrs, TDE = time-dependent effect
[17] = molecular target: T2, Protein cereblon/Tubulin beta-3 chain; assay: Protac activity at CRBN/beta3-tubulin in human A549 cells assessed as reduction in beta3-tubulin level at 0.25 uM pretreated for 48 hrs followed by compound washout and measured after 24 hrs by immunoblotting analysis; type: cell-based
[18] = molecular target: T3, Protein cereblon/Tubulin beta (Homo sapiens); assay: Protac activity at CRBN/beta-tubulin in human A549 cells assessed as reduction in beta-tubulin level at 0.25 uM pretreated with MG-132 followed by compound addition and measured after 24 hrs by immunoblotting analysis; type: cell-based
A549/TR [19] = assay: Inhibition of cell growth in human A549/Taxol cells incubated for 72 hrs by SRB method; type: functional, cell-based
[20] = molecular target: T1, Protein cereblon-alpha tubulin (Homo sapiens); assay: Protac activity at CRBN/alpha-tubulin in human A549 cells assessed as reduction in alpha-tubulin level at 0.25 uM pretreated with pomalidomide for 2 hrs followed by compound addition and measured after 24 hrs by immunoblotting analysis; type: cell-based
[21] = Resistance index, ratio of IC50 for human A549/Taxol cells to IC50 for human A549 cells; type: functional
A549/TR [22] = assay: Induction of cell cycle arrest in human A549/Taxol cells assessed as accumulation of cells at S phase at 0.002 uM incubated for 24 hrs by PI staining based flow cytometry analysis (reference value: 2.85%); type: functional
[23] = molecular target: T3, Protein cereblon/Tubulin beta (Homo sapiens); assay: Protac activity at CRBN/beta-tubulin in human MGC-803 cells assessed as reduction in beta-tubulin level at 10 to 1000 nM incubated for 48 hrs by immunoblotting analysis; type: cell-based; conditions: dose 10-1000 nM
[24] = molecular target: T1, Protein cereblon-alpha tubulin (Homo sapiens); assay: Protac activity at CRBN/alpha-tubulin in human A549 cells assessed as reduction in alpha-tubulin level at 0.25 uM pretreated with MG-132 followed by compound addition and measured after 24 hrs by immunoblotting analysis; type: cell-based
[25] = molecular target: T2, Protein cereblon/Tubulin beta-3 chain; assay: Protac activity at CRBN/beta3-tubulin in human A549/Taxol cells assessed as reduction in beta3-tubulin level at 0.25 uM pretreated with CA-4 for 2 hrs followed by compound addition and measured after 48 hrs by immunoblotting analysis; type: cell-based
A549/TR [26] = assay: Induction of cell cycle arrest in human A549/Taxol cells assessed as accumulation of cells at G2/M phase at 0.05 uM incubated for 24 hrs by PI staining based flow cytometry analysis (reference value: 17.02%); type: functional
A549/TR [27] = assay: Induction of cell cycle arrest in human A549/Taxol cells assessed as accumulation of cells at G0/G1 phase at 0.05 uM incubated for 24 hrs by PI staining based flow cytometry analysis (reference value: 77.86%); type: functional
HepG2 [28] = assay: Induction of DNA damage in human HepG2 cells assessed as gamma-H2AX level; type: functional, cell-based
A549 [29] = assay: Antitumor activity against human A549 cells xenografted in nude mouse assessed as tumor growth inhibition at 15 mg/kg, […] administered once every 2 days for 23 days by Vernier caliper method; type: functional; conditions: A549, 552 h, time 23 day, read-out: TGI
A549 [30] = assay: Induction of cell cycle arrest in human A549 cells assessed as accumulation of cells at G0/G1 phase at 0.05 uM incubated for 24 hrs by PI staining based flow cytometry analysis (reference value: 66.75%); type: functional
[31] = molecular target: Protein cereblon/Tubulin beta; assay: (§2) Protac activity at CRBN/beta-tubulin in human A549 cells assessed as reduction in beta-tubulin level incubated for 48 hrs by immunoblotting analysis; type: cell-based
[32] = molecular target: T3, Protein cereblon/Tubulin beta (Homo sapiens); assay: as §2; type: cell-based
[33] = molecular target: T3, Protein cereblon/Tubulin beta (Homo sapiens); assay: Protac activity at CRBN/beta-tubulin in human A549 cells assessed as reduction in beta-tubulin level at 0.25 uM pretreated with pomalidomide for 2 hrs followed by compound addition and measured after 24 hrs by immunoblotting analysis; type: cell-based

## COc1ccc(/C=C\c2cc(OC)c(OC)c(OC)c2)cc1OC(=O)CCCNc1cccc2c1C(=O)N(C1CCC(=O)NC1=O)C2=O (stereo unspecified)
[1]
  DC50: 32 nM
[2]
  Activity: Dose-Dependent Effect
HUVEC [3]
  Activity: Active
HUVEC [4]
  Activity: Active
[5]
  Activity: Active
A549 [6]
  inhibition: Dose-Dependent Effect
A549 [7]
  Activity: 5.65%
[8]
  Activity: Active
A549 [9]
  Activity: 16.44%
HepG2 [10]
  inhibition: Dose-Dependent Effect
[11]
  Activity: Tde
[12]
  Ratio IC50: 0.5
HEK-293T
  Activity: Non-Toxic
A549 [13]
  Activity: 48.2%
HepG2 [14]
  Activity: Active
Tubulin (Homo sapiens)
  inhibition: Active
A549/TR [15]
  Activity: 36.2%
[16]
  Activity: Tde
[17]
  Activity: inactive
[18]
  Activity: inactive
A549/TR [19]
  IC50: 5 nM
  inhibition: Dose-Dependent Effect
[20]
  Activity: inactive
[21]
  Ratio IC50: 0.5
A549/TR [22]
  Activity: 7.68%
[23]
  Activity: Active
[24]
  Activity: inactive
[25]
  Activity: inactive
A549/TR [26]
  Activity: 66.57%
A549/TR [27]
  Activity: 30%
HepG2 [28]
  Activity: Active
A549 [29]
  inhibition in vivo at 15 mg/kg: 34.1%
A549 [30]
  Activity: 10.15%
[31]
  DC50: 856 nM
[32]
  Activity: Dose-Dependent Effect
[33]
  Activity: inactive
